Values after ≈ are worked out from the molar mass of the structure shown.
Assays:
[1] = tested on: Staphylococcus aureus S13E; assay type: cell-based
Protocol: (§1) The MIC's were determined using a standard broth micro-dilution assay.

[2] = tested on: Entercoccus faecium 180-1; assay: broth micro-dilution MIC; assay type: cell-based
Protocol: as §1

Entercoccus faecium 276 = assay: broth micro-dilution MIC; assay type: cell-based
Protocol: as §1

[3] = tested on: Staphylococcus aureus 446; assay: broth micro-dilution MIC; assay type: cell-based
Protocol: as §1

[4] = tested on: Staphylococcus aureus 447; assay: broth micro-dilution MIC; assay type: cell-based
Protocol: as §1

[5] = tested on: Staphylococcus aureus 489; assay: broth micro-dilution MIC; assay type: cell-based
Protocol: as §1

[6] = tested on: Staphylococcus aureus SA1199A; assay: broth micro-dilution MIC; assay type: cell-based
Protocol: as §1

[7] = tested on: Staphylococcus aureus X400; assay: broth micro-dilution MIC; assay type: cell-based
Protocol: as §1

[8] = tested on: Streptococcus pyogenes C203; assay: broth micro-dilution MIC; assay type: cell-based
Protocol: as §1

Entercoccus faecium 180 = assay: broth micro-dilution MIC; assay type: cell-based; settings: Entercoccus faecium 180
Protocol: (§2) The formula I compounds have in vitro and in vivo activity against Gram-positive pathogenic bacteria. The MIC's were determined using a standard broth micro-dilution assay.

[9] = tested on: Haemophilus influenzae RD; assay: broth micro-dilution MIC; assay type: cell-based; settings: Haemophilus influenzae RD
Protocol: as §2

[10] = tested on: Staphylococcus epidermidis 270; assay: broth micro-dilution MIC; assay type: cell-based
Protocol: as §2

[11] = tested on: Staphylococcus haemolyticus 105; assay: broth micro-dilution MIC; assay type: cell-based
Protocol: as §2

[12] = tested on: Staphylococcus haemolyticus 415; assay: broth micro-dilution MIC; assay type: cell-based
Protocol: as §2

[13] = tested on: Streptococcus pneumoniae P1; assay: broth micro-dilution MIC; assay type: cell-based
Protocol: as §2

[14] = tested on: vancomycin-resistant enterococci; assay: broth micro-dilution, mean geometric MIC; assay type: cell-based, Enterococcus faecium and Enterococcus faecalis; settings: enterococci, 24-hour incubation
[15] = tested on: vancomycin-susceptible enterococci; assay: broth micro-dilution, mean geometric MIC; assay type: cell-based, Enterococcus faecium and Enterococcus faecalis; settings: enterococci, 24-hour incubation
[16] = tested on: Staphylococcus aureus SA1199B; assay type: cell-based
Protocol: as §1

[17] = tested on: Staphylococcus aureus SA1199; assay: broth micro-dilution MIC; assay type: cell-based
Protocol: as §1

Entercoccus faecium 2041 = assay: broth micro-dilution MIC; assay type: cell-based; settings: Entercoccus faecium 2041
Protocol: as §2

[18] = tested on: Enterococcus gallinarum 245; assay: broth micro-dilution MIC; assay type: cell-based; settings: Enterococcus gallinarum 245
Protocol: as §2

[19] = tested on: Staphylococcus aureus X778; assay: broth micro-dilution MIC; assay type: cell-based
Protocol: as §1

SMILES	MIC [1]	MIC [2]	MIC (Entercoccus faecium 276)	MIC [3]	MIC [4]	MIC [5]	MIC [6]	MIC [7]	MIC [8]	MIC (Entercoccus faecium 180)	MIC [9]	MIC [11]	MIC [12]	MIC [13]	mean geometric MIC, Vancomycin Resistant Strains [14]	mean geometric MIC, Vancomycin Sensitive Strains [15]	MIC [16]	MIC [17]	MIC (Entercoccus faecium 2041)	MIC [18]	also measured
CNC(CC(C)C)C(=O)NC1C(=O)NC(CC(N)=O)C(=O)NC2C(=O)NC3C(=O)NC(C(=O)NC(C(=O)O)c4cc(O)cc(O)c4-c4cc3ccc4O)C(OC3CC(C)(N)C(O)C(C)O3)c3ccc(c(Cl)c3)Oc3cc2cc(c3OC2OC(CO)C(O)C(O)C2OC2CC(C)(NCc3c(OC)ccc4ccccc34)C(O)C(C)O2)Oc2ccc(cc2Cl)C1O (centres unmarked) [Compound 9]	0.5 µg/mL (≈ 0.284 µM)	≤ 0.06 µg/mL	0.26 µg/mL (≈ 0.148 µM)	2 µg/mL (≈ 1.13 µM)	4 µg/mL (≈ 2.27 µM)	0.5 µg/mL (≈ 0.284 µM)	≤ 0.06 µg/mL	0.5 µg/mL (≈ 0.284 µM)	≤ 0.06 µg/mL	1 µg/mL (≈ 0.567 µM)	≤ 0.06 µg/mL	4 µg/mL (≈ 2.27 µM)	4 µg/mL (≈ 2.27 µM)	≤ 0.06 µg/mL	11 µg/mL	0.38 µg/mL					MIC [10]: 16 µg/mL (≈ 9.08 µM)
CNC(CC(C)C)C(=O)NC1C(=O)NC(CC(N)=O)C(=O)NC2C(=O)NC3C(=O)NC(C(=O)NC(C(=O)O)c4cc(O)cc(O)c4-c4cc3ccc4O)C(OC3CC(C)(N)C(O)C(C)O3)c3ccc(c(Cl)c3)Oc3cc2cc(c3OC2OC(CO)C(O)C(O)C2OC2CC(C)(NCc3ccc(OC(F)F)cc3)C(O)C(C)O2)Oc2ccc(cc2Cl)C1O (centres unmarked) [Compound 72]	≤ 0.06 µg/mL	≤ 0.06 µg/mL	≤ 0.06 µg/mL	2 µg/mL (≈ 1.14 µM)	1 µg/mL (≈ 0.572 µM)	≤ 0.06 µg/mL	≤ 0.06 µg/mL			0.5 µg/mL (≈ 0.286 µM)	32 µg/mL (≈ 18.3 µM)	1 µg/mL (≈ 0.572 µM)	4 µg/mL (≈ 2.29 µM)		4.7 µg/mL	0.28 µg/mL	≤ 0.06 µg/mL	1 µg/mL (≈ 0.572 µM)	≤ 0.06 µg/mL	4 µg/mL (≈ 2.29 µM)	
CNC(CC(C)C)C(=O)NC1C(=O)NC(CC(N)=O)C(=O)NC2C(=O)NC3C(=O)NC(C(=O)NC(C(=O)O)c4cc(O)cc(O)c4-c4cc3ccc4O)C(OC3CC(C)(N)C(O)C(C)O3)c3ccc(c(Cl)c3)Oc3cc2cc(c3OC2OC(CO)C(O)C(O)C2OC2CC(C)(NCCc3ccc4ccccc4c3)C(O)C(C)O2)Oc2ccc(cc2Cl)C1O (centres unmarked) [Compound 179]		≤ 0.06 µg/mL	≤ 0.06 µg/mL			≤ 0.06 µg/mL	≤ 0.06 µg/mL	≤ 0.06 µg/mL	≤ 0.06 µg/mL	≤ 0.06 µg/mL	4 µg/mL (≈ 2.29 µM)	0.5 µg/mL (≈ 0.286 µM)	1 µg/mL (≈ 0.573 µM)	≤ 0.06 µg/mL	1.7 µg/mL	0.060 µg/mL		1 µg/mL (≈ 0.573 µM)	≤ 0.06 µg/mL	1 µg/mL (≈ 0.573 µM)	MIC [19]: ≤ 0.06 µg/mL
CNC(CC(C)C)C(=O)NC1C(=O)NC(CC(N)=O)C(=O)NC2C(=O)NC3C(=O)NC(C(=O)NC(C(=O)O)c4cc(O)cc(O)c4-c4cc3ccc4O)C(OC3CC(C)(N)C(O)C(C)O3)c3ccc(c(Cl)c3)Oc3cc2cc(c3OC2OC(CO)C(O)C(O)C2OC2CC(C)(NCCCCCCc3ccccc3)C(O)C(C)O2)Oc2ccc(cc2Cl)C1O (centres unmarked) [Compound 196]	1 µg/mL (≈ 0.571 µM)	≤ 0.06 µg/mL		0.5 µg/mL (≈ 0.285 µM)	0.5 µg/mL (≈ 0.285 µM)	1 µg/mL (≈ 0.571 µM)	≤ 0.06 µg/mL	0.5 µg/mL (≈ 0.285 µM)	≤ 0.06 µg/mL	0.5 µg/mL (≈ 0.285 µM)	32 µg/mL (≈ 18.3 µM)	0.5 µg/mL (≈ 0.285 µM)	1 µg/mL (≈ 0.571 µM)	≤ 0.06 µg/mL	1.7 µg/mL	0.027 µg/mL	0.5 µg/mL (≈ 0.285 µM)	0.5 µg/mL (≈ 0.285 µM)	≤ 0.06 µg/mL	1 µg/mL (≈ 0.571 µM)	MIC [19]: 1 µg/mL (≈ 0.571 µM)
CNC(CC(C)C)C(=O)NC1C(=O)NC(CC(N)=O)C(=O)NC2C(=O)NC3C(=O)NC(C(=O)NC(C(=O)O)c4cc(O)cc(O)c4-c4cc3ccc4O)C(OC3CC(C)(N)C(O)C(C)O3)c3ccc(c(Cl)c3)Oc3cc2cc(c3OC2OC(CO)C(O)C(O)C2OC2CC(C)(NCCCCCCCCOc3ccc(OC)cc3)C(O)C(C)O2)Oc2ccc(cc2Cl)C1O (centres unmarked) [Compound 200]	0.5 µg/mL (≈ 0.274 µM)	≤ 0.06 µg/mL	0.5 µg/mL (≈ 0.274 µM)	1 µg/mL (≈ 0.547 µM)	0.5 µg/mL (≈ 0.274 µM)		≤ 0.06 µg/mL	1 µg/mL (≈ 0.547 µM)	≤ 0.06 µg/mL		32 µg/mL (≈ 17.5 µM)	1 µg/mL (≈ 0.547 µM)	2 µg/mL (≈ 1.09 µM)	≤ 0.06 µg/mL	1.4 µg/mL	0.041 µg/mL	1 µg/mL (≈ 0.547 µM)	1 µg/mL (≈ 0.547 µM)	≤ 0.06 µg/mL	2 µg/mL (≈ 1.09 µM)	MIC [19]: 0.5 µg/mL (≈ 0.274 µM)
CNC(CC(C)C)C(=O)NC1C(=O)NC(CC(N)=O)C(=O)NC2C(=O)NC3C(=O)NC(C(=O)NC(C(=O)O)c4cc(O)cc(O)c4-c4cc3ccc4O)C(OC3CC(C)(N)C(O)C(C)O3)c3ccc(c(Cl)c3)Oc3cc2cc(c3OC2OC(CO)C(O)C(O)C2OC2CC(C)(NCc3ccc(-c4ccccc4C)cc3)C(O)C(C)O2)Oc2ccc(cc2Cl)C1O (centres unmarked) [Compound 209]	0.5 µg/mL (≈ 0.282 µM)	≤ 0.06 µg/mL		1 µg/mL (≈ 0.564 µM)	1 µg/mL (≈ 0.564 µM)	1 µg/mL (≈ 0.564 µM)	≤ 0.06 µg/mL	1 µg/mL (≈ 0.564 µM)	≤ 0.06 µg/mL	≤ 0.06 µg/mL	16 µg/mL (≈ 9.03 µM)	0.5 µg/mL (≈ 0.282 µM)	1 µg/mL (≈ 0.564 µM)	≤ 0.06 µg/mL	1.2 µg/mL	0.136 µg/mL	0.5 µg/mL (≈ 0.282 µM)		≤ 0.06 µg/mL	1 µg/mL (≈ 0.564 µM)	MIC [19]: 1 µg/mL (≈ 0.564 µM); MIC [10]: 0.15 µg/mL (≈ 0.0846 µM)
C=CCCCOc1ccc(CNC2(C)CC(OC3C(Oc4c5cc6cc4Oc4ccc(cc4Cl)C(OC4CC(C)(N)C(O)C(C)O4)C4NC(=O)C(NC(=O)C6NC(=O)C(CC(N)=O)NC(=O)C(NC(=O)C(CC(C)C)NC)C(O)c6ccc(c(Cl)c6)O5)c5ccc(O)c(c5)-c5c(O)cc(O)cc5C(C(=O)O)NC4=O)OC(CO)C(O)C3O)OC(C)C2O)cc1 (centres unmarked) [Compound 226]	0.5 µg/mL (≈ 0.283 µM)	≤ 0.06 µg/mL		1 µg/mL (≈ 0.566 µM)	0.5 µg/mL (≈ 0.283 µM)	0.5 µg/mL (≈ 0.283 µM)			≤ 0.06 µg/mL	≤ 0.06 µg/mL	32 µg/mL (≈ 18.1 µM)	2 µg/mL (≈ 1.13 µM)	1 µg/mL (≈ 0.566 µM)	≤ 0.06 µg/mL	1.6 µg/mL	0.041 µg/mL	1 µg/mL (≈ 0.566 µM)	1 µg/mL (≈ 0.566 µM)	≤ 0.06 µg/mL	1 µg/mL (≈ 0.566 µM)	MIC [10]: 1 µg/mL (≈ 0.566 µM)
